Reference: patent publication US7332474B2, “Peptides and related compounds having thrombopoietic activity” (Amgen Inc., priority 2001, dated 2008)
pEC50, pIC50: −log10 of the molar value.

Experiments:
c-mpl [1] = target: T1, c-mpl (Homo sapiens, UniProt P40238); conditions: Cwirla et al., Science 276:1696-1699 (1997); cited from earlier work
T1 sequence (P40238 26-635): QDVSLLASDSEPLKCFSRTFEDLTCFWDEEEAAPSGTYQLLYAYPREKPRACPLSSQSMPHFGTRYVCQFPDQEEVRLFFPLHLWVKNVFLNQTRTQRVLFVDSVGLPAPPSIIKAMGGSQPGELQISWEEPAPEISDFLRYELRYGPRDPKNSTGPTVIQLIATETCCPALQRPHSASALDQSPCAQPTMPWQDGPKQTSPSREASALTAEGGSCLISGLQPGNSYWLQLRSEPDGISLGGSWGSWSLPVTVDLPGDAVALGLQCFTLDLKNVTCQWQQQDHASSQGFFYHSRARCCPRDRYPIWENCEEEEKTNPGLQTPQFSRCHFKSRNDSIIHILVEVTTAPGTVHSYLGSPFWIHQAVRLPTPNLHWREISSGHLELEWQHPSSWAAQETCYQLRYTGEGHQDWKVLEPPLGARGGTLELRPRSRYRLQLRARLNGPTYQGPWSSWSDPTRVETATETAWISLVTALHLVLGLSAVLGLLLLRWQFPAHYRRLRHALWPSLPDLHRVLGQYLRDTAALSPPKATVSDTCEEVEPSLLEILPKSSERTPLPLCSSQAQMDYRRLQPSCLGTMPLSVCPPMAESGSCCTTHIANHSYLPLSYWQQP

c-mpl [2] = target: T1, c-mpl; conditions: Cwirla et al., Science 276:1696-1699 (1997); cited from earlier work; remark: listed apart in the source
hu-mpl = hu-mpl (Homo sapiens, UniProt P40238); conditions: ratio of KD of TMP1 to KD of peptide
[3] = target: murine 32D cells transfected with a human mpl receptor (Homo sapiens, UniProt P40238)
Text: The murine 32D cell proliferation assay involves the use of murine 32D cells that have been transfected with a human mpl receptor.

Row | Sequence | pIC50 (c-mpl [1]) | pEC50 (c-mpl [2]) | Affinity relative to TMP1 (hu-mpl) | Murine 32D Cell Proliferation Assay (relative to TMP1) [3]
1 | IEGPTLRQWLAARA [TPO mimetic peptide] | 8.70 | 6.40 |  | 
2 | QGCSWGGPTLKQWLQCVRAKHS [TMP23] |  |  | >54 | Not Detectable
3 | SAQGIEGPTLRQWLAARALETV [TMP1, reference compound] |  |  |  | 100%
4 | QGCSSGGPTLREWLQCRRMQHS [TMP22] |  |  | >54 | Not Detectable
5 | QGALQEGPTLRQWLGWGQWGHS [TMP19] |  |  | 0.07 | 27%
